Where two headings read alike, the source gives them in different places.
Legend:
[1] = molecular target: human recombinant PDE-4B1 (Homo sapiens, UniProt Q07343); test: PDE4-B1 assay (Compounds of Formula I), SPA; type: biochemical; details: for IC50: 4-parameter logistical fit, two technical replicates
Protocol: (§1) 20 mins after addition of human recombinant PDE-4B1 (1.2 IEU) or PDE-4D2 (1.5 IEU), SPA beads were added and incubated at 22° C. for a further 30 mins. [^3H]5′AMP was quantified by a standard scintillation counting method.

[2] = molecular target: human recombinant PDE-4D2 (Homo sapiens, UniProt Q08499); test: PDE4-D2 assay (Compounds of Formula I), SPA; type: biochemical; details: for IC50: 4-parameter logistical fit, two technical replicates
Protocol: as §1

[3] = Hepatocyte stability study; type: in vitro ADME; details: human hepatocytes
Protocol: The compounds were added at a concentration of 1 μM to human hepatocytes (0.5×10^6 cells/ml in Williams E media supplemented with 2 mM L-glutamine and 25 mM HEPES) and incubated for 0, 5, 10, 20, 40 and 60 min at 37° C. Five replicates were performed for each compound.

[4] = molecular target: T1, human serotonin transporter (Homo sapiens, UniProt P31645); details: for inhibition: 10 µM;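 for all read-outs here: Read-out: uptake of tritium-labelled serotonin, measured by scintillation counting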
Protocol: (§6) Following incubation, [^3H] serotonin uptake was quantified by a standard scintillation counting method.

[5] = in vivo; set-up: species or system male C57Bl/6J mice; details: male, C57Bl/6J, mouse, ip, 30 mg/kg
Protocol: Groups of 18 male C57Bl/6J mice (weighing between 22.7 and 27.3 g) received a single administration of test compound (30 mg/kg; i.p.) in methylcellulose (0.5% w/v) at a nominal concentration of […].
Three mice from each dose group were subject to cardiac puncture under general anesthesia at 0.25, 0.50, 1.00, 1.50, 2.00 and 4.00 hours post-dose and plasma samples generated for application of standard LC-MS/MS bioanalytical methods.
Quantitation of compound concentration was derived from reference calibration data. Pharmacokinetic data were derived from serial plasma concentrations.

[6] = tested on: time spent in centre of open field; test: Open field test; type: in vivo, male C57Bl/6J mice; details: for Time spent in centre during open field test, Low dose (0.3 mg/kg): 0.3 mg/kg i.p.; for Time spent in centre during open field test, Low dose (0.3 mg/kg) / Time spent in centre during open field test, High dose (3 mg/kg): 60 minutes before test; for Time spent in centre during open field test, High dose (3 mg/kg): 3 mg/kg i.p.
Protocol: The open field test is routinely applied in order to assess a compounds ability to affect anxiety, and as such as positive result may be indicative of a compounds anxiolytic activity (Kraeuter et al., 2019).
(§2) Male C57Bl/6J mice (3-4 months), were assigned to one of three groups receiving either test compound (0.3, 3.0 mg/kg) or vehicle (0.5% (w/v) methyl cellulose) via the i.p. route, 60 minutes before experimental examination.
(§3) The test compounds used were compound identification numbers 6, 13 and 21 from Table 1.
The duration of time the mouse spent in central, periphery and corners were quantified, with duration in the central area depicted as the primary outcome measure.
(§4) Data were tested for normality and outliers were removed.

[7] = tested on: time spent immobile; test: Forced swim test; type: in vivo, male C57Bl/6J mice; details: 60 minutes before test; for Time spent immobile during forced swim test, Low dose (0.3 mg/kg): 0.3 mg/kg i.p.; for Time spent immobile during forced swim test, High dose (3 mg/kg): 3 mg/kg i.p.
Protocol: The forced swim test is a standard model for examination of potential antidepressant-like activity and represents futility, despair, and motivation behavioural domains.
as §2, §3
The duration of time the mouse spent immobile during the forced swim test was measured.
as §4

[8] = tested on: TNF-α; test: LPS-induced cytokine release from human PBMCs: TNF-α; type: cell-based
Protocol: (§5) Data were tested for normality.

[9] = tested on: IL-10; test: LPS-induced cytokine release from human PBMCs: IL-10; type: cell-based; details: high concentration (10.0 μM)
Protocol: as §5

[10] = tested on: IL-1β; test: LPS-induced cytokine release from human PBMCs: IL-1β; type: cell-based; details: high concentration (10.0 μM)
Protocol: as §5

[11] = molecular target: T1, human serotonin transporter; test: cell-based
Protocol: as §6

[12] = naturally occurring; cited from earlier work
[13] = molecular target: 5-HT transporter (Homo sapiens, UniProt P31645); details: Harvey et al., 2011; cited from earlier work
[14] = molecular target: PDE-4B (Homo sapiens, UniProt Q07343); details: Harvey et al., 2011; cited from earlier work
[15] = medium (1.0 μM) and high (10.0 μM) concentration

Sequence of human recombinant PDE-4B1 (Q07343 whole entry): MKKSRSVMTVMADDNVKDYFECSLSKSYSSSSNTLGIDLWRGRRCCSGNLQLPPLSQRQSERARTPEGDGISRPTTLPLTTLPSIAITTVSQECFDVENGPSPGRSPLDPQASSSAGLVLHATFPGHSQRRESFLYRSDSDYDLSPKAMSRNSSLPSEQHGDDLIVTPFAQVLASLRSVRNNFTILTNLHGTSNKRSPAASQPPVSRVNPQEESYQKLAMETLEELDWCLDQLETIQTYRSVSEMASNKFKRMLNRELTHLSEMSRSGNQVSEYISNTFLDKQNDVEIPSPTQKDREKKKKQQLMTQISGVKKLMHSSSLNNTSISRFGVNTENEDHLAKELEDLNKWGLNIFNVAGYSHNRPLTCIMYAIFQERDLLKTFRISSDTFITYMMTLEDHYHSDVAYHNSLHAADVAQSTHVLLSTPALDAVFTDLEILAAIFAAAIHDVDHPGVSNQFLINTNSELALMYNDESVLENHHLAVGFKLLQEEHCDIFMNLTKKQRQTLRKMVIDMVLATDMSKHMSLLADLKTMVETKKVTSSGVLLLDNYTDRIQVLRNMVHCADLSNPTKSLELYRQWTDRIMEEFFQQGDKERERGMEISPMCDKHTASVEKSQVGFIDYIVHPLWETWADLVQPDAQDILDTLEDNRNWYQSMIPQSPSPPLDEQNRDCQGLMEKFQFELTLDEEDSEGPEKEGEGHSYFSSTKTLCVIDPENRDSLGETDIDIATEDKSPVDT
Sequence of human recombinant PDE-4D2 (Q08499 303-809): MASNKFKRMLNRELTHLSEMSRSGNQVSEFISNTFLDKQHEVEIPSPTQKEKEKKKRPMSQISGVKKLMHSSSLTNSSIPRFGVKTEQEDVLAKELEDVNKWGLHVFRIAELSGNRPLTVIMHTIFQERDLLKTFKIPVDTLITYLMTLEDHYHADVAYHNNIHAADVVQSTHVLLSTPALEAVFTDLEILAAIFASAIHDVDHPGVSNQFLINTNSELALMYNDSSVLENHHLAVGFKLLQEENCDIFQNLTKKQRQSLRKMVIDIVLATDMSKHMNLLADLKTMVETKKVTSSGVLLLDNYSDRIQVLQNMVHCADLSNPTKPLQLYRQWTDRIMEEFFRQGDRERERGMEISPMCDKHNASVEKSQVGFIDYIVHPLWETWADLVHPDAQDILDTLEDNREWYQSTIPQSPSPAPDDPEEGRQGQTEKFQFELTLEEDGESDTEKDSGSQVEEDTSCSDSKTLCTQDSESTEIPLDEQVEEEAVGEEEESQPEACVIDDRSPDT
T1 sequence (P31645 whole entry): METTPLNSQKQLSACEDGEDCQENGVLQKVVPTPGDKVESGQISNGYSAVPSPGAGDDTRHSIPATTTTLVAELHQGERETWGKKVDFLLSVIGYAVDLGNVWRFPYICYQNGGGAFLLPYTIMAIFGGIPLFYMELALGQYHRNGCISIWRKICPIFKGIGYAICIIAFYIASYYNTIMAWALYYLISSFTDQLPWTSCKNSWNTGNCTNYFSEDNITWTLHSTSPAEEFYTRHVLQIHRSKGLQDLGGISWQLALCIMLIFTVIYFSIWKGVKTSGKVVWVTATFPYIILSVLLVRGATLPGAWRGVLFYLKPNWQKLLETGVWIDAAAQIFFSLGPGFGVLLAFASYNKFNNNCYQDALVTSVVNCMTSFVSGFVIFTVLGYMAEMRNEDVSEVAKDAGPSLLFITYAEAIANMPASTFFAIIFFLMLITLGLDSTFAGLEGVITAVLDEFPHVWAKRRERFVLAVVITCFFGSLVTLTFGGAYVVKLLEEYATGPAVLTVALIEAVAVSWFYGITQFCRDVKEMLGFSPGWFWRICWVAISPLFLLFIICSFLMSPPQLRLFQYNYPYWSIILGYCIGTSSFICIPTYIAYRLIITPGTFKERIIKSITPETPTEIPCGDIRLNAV
Sequence of PDE-4B (Q07343 whole entry, species assumed): as the sequence (Q07343 whole entry) above
Sequence of 5-HT transporter (P31645 whole entry, species assumed): as the sequence (P31645 whole entry) above

Structure (SMILES)	AUC(0-inf) [5] [ng·h/mL]	Cmax [5] [ng/mL]	Tmax [5] [min]	half-life [5] [min]	IC50 [4] [µM]	IC50 [1] [µM]	IC50 [2] [µM]	IC50 [11] [µM]	other results
[2H]C([2H])([2H])Oc1cc([C@@]23CCC(=O)C[C@@H]2N(C)CC3)ccc1OC [Compound 5]	–	–	–	–	–	–	–	–	inhibition at 30 µM ([1]; 30 μM, relative to Ro 20-1724): 88%; inhibition at 30 µM ([2]; 30 μM, relative to Ro 20-1724): 94%; half-life compared with non-deuterated mesembrine [3]: shorter half-life; hepatocyte CLint at 1 μM ([3]; 1 μM, 37° C., read-out: Qualified Clint): 21.1 µL/min/1e6 cells; half-life at 1 μM ([3]; 1 μM, 37° C., read-out: Qualified t1/2): 65.8 min; inhibition [4]: 98%
CCOc1ccc([C@@]23CCC(=O)C[C@@H]2N(C)CC3)cc1OCC [Compound 21]	1830	2430	15	34.2	0.03	–	–	–	Time spent in centre during open field test, Low dose (0.3 mg/kg) [6]: 13.7 s; Time spent in centre during open field test, High dose (3 mg/kg) [6]: 9.8 s; Time spent in the centre compared to vehicle (significance) ([6]; low dose of 0.3 mg/kg): statistically significant increase; Time spent immobile during forced swim test, Low dose (0.3 mg/kg) [7]: 105 s; Time spent immobile during forced swim test, High dose (3 mg/kg) [7]: 118 s; inhibition [4]: 91%
COc1ccc([C@@]23CCC(=O)C[C@@H]2N(C)CC3)cc1OCC1CC1 [Compound 1]	–	–	–	–	–	–	–	–	Inhibition of TNF-α release compared to vehicle (significance) [8, 15]: inhibited TNF-α release at a statistically significant level; Inhibition of IL-10 (significance) [9]: statistically significantly inhibited; Inhibition of IL-β (significance) [10]: statistically significantly inhibited
C#CCOc1cc([C@@]23CCC(=O)C[C@@H]2N(C)CC3)ccc1OC [Compound 15]	–	–	–	–	–	< 3	< 3	< 3	–
COc1ccc([C@@]23CCC(=O)C[C@@H]2N(C)CC3)cc1OC [Mesembrine, mesembrine, reference compound]	–	–	–	–	–	–	–	–	Qualified Clint ([3]; 1 μM, 37° C.): 16.3 μl/min/10^6 cells; Qualified t1/2 ([3]; 1 μM, 37° C.): 84.8; solubility in water [12]: scarcely soluble in water
C=CCOc1cc([C@@]23CCC(=O)C[C@@H]2N(C)CC3)ccc1OC [Compound 13]	2100	2330	15	40.2	0.02	–	–	–	Time spent in centre during open field test, Low dose (0.3 mg/kg) [6]: 10.6 s; Time spent in centre during open field test, High dose (3 mg/kg) [6]: 8.8 s; Time spent immobile during forced swim test, Low dose (0.3 mg/kg) [7]: 119 s; Time spent immobile during forced swim test, High dose (3 mg/kg) [7]: 138 s; inhibition [4]: 100%
COc1ccc([C@]23CCC(=O)C=C2N(C)CC3)cc1OC [Compound 40]	–	–	–	–	–	> 3	> 3	> 3	–
COc1ccc([C@@]23C=C[C@@H](O)C[C@@H]2N(C)CC3)cc1OC [mesembrenol]	–	–	–	–	–	–	–	–	activity in 5-HT transporter binding assay [13]: potently active; activity against PDE-4B [14]: potently active
CCOc1cc([C@@]23CCC(=O)C[C@@H]2N(C)CC3)ccc1OC [Compound 6]	1960	2610	15	33.6	0.002	–	–	–	Time spent in centre during open field test, Low dose (0.3 mg/kg) [6]: 9.4 s; Time spent in centre during open field test, High dose (3 mg/kg) [6]: 8.6 s; Time spent immobile during forced swim test, Low dose (0.3 mg/kg) [7]: 116 s; Time spent immobile during forced swim test, High dose (3 mg/kg) [7]: 88 s
COc1ccc([C@@]23CCC(=O)C=C2N(C)CC3)cc1OC1CCCC1 [Compound 42]	–	–	–	–	–	> 3	< 3	> 3	–
C=CCOc1cc([C@@]23CCC(=O)C=C2N(C)CC3)ccc1OC [Compound 43]	–	–	–	–	–	> 3	> 3	> 3	–
COc1ccc([C@@]23CCC(=O)C=C2N(C)CC3)cc1OC [Compound 41]	–	–	–	–	–	> 3	> 3	< 3	–
CCCCOc1cc([C@@]23CCC(=O)C[C@@H]2N(C)CC3)ccc1OC [Compound 2]	–	–	–	–	0.03	–	–	–	Inhibition of TNF-α release compared to vehicle (significance) [8, 15]: inhibited TNF-α release at a statistically significant level; Inhibition of IL-10 (significance) [9]: statistically significantly inhibited
COc1ccc([C@@]23CCC(=O)C[C@@H]2N(C)CC3)cc1OC1CCCC1 [Compound 11]	1040	796	15	56.4	0.8	–	–	–	Inhibition of TNF-α release compared to vehicle (significance) ([8]; all concentrations): inhibit TNF-α release at a statistically significant level; Inhibition of IL-10 (significance) [9]: statistically significantly inhibited; Inhibition of IL-β (significance) [10]: statistically significantly inhibited
CCOc1ccc([C@@]23CCC(=O)C[C@@H]2N(C)CC3)cc1OC1CCCC1 [Compound 27]	1400	831	15	58.2	0.4	–	–	–	Inhibition of TNF-α release compared to vehicle (significance) [8, 15]: inhibited TNF-α release at a statistically significant level; inhibition [4]: 96%
CCOc1ccc(C23C=CC(=O)CC2N(C)CC3)cc1OCC (centres unmarked) [Compound 44]	–	–	–	–	–	< 3	< 3	> 3	–
